Measured values reported in EP0019589A1, “Tripeptide derivatives and their use in a process for determining enzymes” (Pentapharm A.G., priority 1979, dated 1980).
Non-standard residues stand in square brackets, D forms with d. Residues, ends and D or L forms follow the SMILES beside them. *: point of attachment. Cha = N[C@@H](CC1CCCCC1)C(=O)O; dCha = N[C@H](CC1CCCCC1)C(=O)O; dChg = N[C@@H](C(=O)O)C1CCCCC1; dPhg = N[C@@H](C(=O)O)c1ccccc1; pNA = O=[N+]([O-])c1ccc(N*)cc1; Chg = N[C@H](C(=O)O)C1CCCCC1; dNva = CCC[C@@H](N)C(=O)O; Nle = CCCC[C@H](N)C(=O)O; dAbu = CC[C@@H](N)C(=O)O; Abu = CC[C@H](N)C(=O)O

How the values were obtained:
Format in all cases: biochemical
[1] = target: T1, Submandibularis-Kallikrein (Homo sapiens, UniProt P06870); test: Cleavage of chromogenic substrate by submandibular (glandular) kallikrein in human sputum; settings: 1 ml human sputum, per min; Substratkonzentration 2 x 10^-4 molar
T1 construct: Man mischt 0,5 ml Sputum mit 2 ml TRIS-Imidazol-Puffer; from tissue; host or cells: human sputum
How it was run: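 Sputum mixed with TRIS-imidazole buffer (ionic strength 1.0), preincubated 5 min at 37°C and centrifuged; supernatant incubated with aqueous substrate solution (2 x 10^-3 M, stock). p-Nitroaniline release followed continuously at 405 nm for 5-10 min; activity expressed as mU per ml sputum from ΔOD/min.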

Urinkallikrein = target: T2, Urinkallikrein (Homo sapiens, UniProt P06870); test: Cleavage of chromogenic substrate by urinary kallikrein in human urine; settings: 1 ml human urine (pooled morning urine of healthy persons), per min; Substratkonzentration 2 x 10^-4 molar
T2 construct: 1 ml Urin und 1 ml TRIS-Imidazol-Puffer mit pH 7,9; from tissue; host or cells: human urine

Humanplasmin = target: T3, Humanplasmin (Homo sapiens, UniProt P00747); test: Cleavage of chromogenic substrate by human plasmin; settings: 1 CU-Einheit human plasmin, per min; Substratkonzentration 2 x 10^-4 molar
T3 construct: da bei der Aktivierung aus 1 Molekül Plasminogen 1 Molekül Plasmin entsteht

Humanthrombin = target: T4, Humanthrombin (Homo sapiens, UniProt P00734); test: Cleavage of chromogenic substrate by human NIH thrombin; settings: 1 NIH-Einheit human thrombin, per min; Substratkonzentration 2 x 10^-4 molar
T4 construct: Humanplasmin und hu-manem NIH-Thrombin
How it was run: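 Thrombin hydrolysis of chromogenic p-nitroanilide substrate read spectrophotometrically at 405 nm; fluorogenic naphthylamine, methylcoumarylamine or di(methoxycarbonyl)phenylamine substrates read continuously by fluorescence emission at 400-470 nm. Activity taken as product formed per unit time; 1 µmol product/min defined as 1 enzyme unit for a given substrate.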

T3 sequence (P00747 581-810 limits assumed): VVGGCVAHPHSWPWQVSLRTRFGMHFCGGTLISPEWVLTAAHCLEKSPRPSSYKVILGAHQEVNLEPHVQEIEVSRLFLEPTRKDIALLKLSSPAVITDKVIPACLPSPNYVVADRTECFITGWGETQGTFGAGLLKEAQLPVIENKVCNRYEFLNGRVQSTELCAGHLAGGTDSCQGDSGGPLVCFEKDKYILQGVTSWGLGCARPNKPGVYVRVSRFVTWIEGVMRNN
T3 sequence (P00747 97-580 partner limits assumed): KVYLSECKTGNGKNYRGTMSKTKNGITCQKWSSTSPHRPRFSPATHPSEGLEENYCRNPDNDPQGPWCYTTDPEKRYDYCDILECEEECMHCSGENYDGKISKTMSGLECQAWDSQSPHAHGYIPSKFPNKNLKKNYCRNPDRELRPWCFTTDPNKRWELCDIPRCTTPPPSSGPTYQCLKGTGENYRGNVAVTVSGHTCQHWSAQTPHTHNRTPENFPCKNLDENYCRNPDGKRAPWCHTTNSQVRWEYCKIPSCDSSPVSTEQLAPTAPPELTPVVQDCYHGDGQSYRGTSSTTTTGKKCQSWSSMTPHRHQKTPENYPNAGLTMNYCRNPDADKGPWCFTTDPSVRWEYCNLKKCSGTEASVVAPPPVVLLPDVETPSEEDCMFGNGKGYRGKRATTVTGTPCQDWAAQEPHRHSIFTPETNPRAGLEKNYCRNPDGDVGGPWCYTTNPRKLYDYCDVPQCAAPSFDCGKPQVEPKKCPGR
T2 sequence (P06870 25-262): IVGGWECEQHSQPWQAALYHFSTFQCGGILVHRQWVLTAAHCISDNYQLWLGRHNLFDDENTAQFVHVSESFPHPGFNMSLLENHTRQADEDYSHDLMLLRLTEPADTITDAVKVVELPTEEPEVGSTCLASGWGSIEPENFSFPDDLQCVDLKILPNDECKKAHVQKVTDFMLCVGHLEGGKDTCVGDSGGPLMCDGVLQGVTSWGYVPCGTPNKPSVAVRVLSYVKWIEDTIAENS
T1 sequence (P06870 25-262): as above

Row | Compound | Menge des durch 1 ml Humansputum pro Min. freigesetzten Spaltproduktes R-NH2 in Nanomol (Submandibularis-Kallikrein) [1] | Menge des durch 1 ml Humanurin pro Min. freigesetzten Spaltproduktes R-NH2 in Nanomol (Urinkallikrein) (Urinkallikrein) | Menge des durch 1 CU-Einheit Humanplasmin pro Min. freigesetzten Spaltproduktes R-NH2 in Nanomol (Humanplasmin) (Humanplasmin) [Nanomol] | Menge des durch 1 NIH-Einheit Thrombin pro Min. freigesetzten Spaltproduktes R-NH2 in Nanomol (Humanthrombin) (Humanthrombin)
1 | N=C(N)NCCC[C@H](NC(=O)[C@@H](NC(=O)[C@H]1CCCN1)C1CCCCC1)C(=O)Nc1ccc([N+](=O)[O-])cc1 [Beispiel 24, 2HBr.H-D-Pro-CHG-Arg-pNA] (H-[dP]-[Chg]-Arg-pNA) | 5,7 Nanomol | 1,87 Nanomol | 10 | 0,29 Nanomol
2 | N=C(N)NCCC[C@H](NC(=O)[C@@H](NC(=O)[C@H](N)C1CCCCC1)C1CCCCC1)C(=O)Nc1ccc([N+](=O)[O-])cc1 [Beispiel 59, 2HBr.H-D-CHG-CHG-Arg-pNA] (H-[dChg]-[Chg]-Arg-pNA) | 5,9 Nanomol | 0,33 Nanomol | 101 | 7,5 Nanomol
3 | CC[C@H](NC(=O)[C@H](N)CC1CCC(O)CC1)C(=O)N[C@@H](CCCNC(=N)N)C(=O)Nc1ccc([N+](=O)[O-])cc1 (stereo partly drawn) [Beispiel 77, 2HBr.H-D-CHT-But-Arg-pNA] | 18,2 Nanomol | 0,64 Nanomol | 463 | 114,2 Nanomol
4 | N=C(N)NCCC[C@H](NC(=O)[C@@H]1CCCN1C(=O)[C@H](N)C1CCCCC1)C(=O)Nc1ccc([N+](=O)[O-])cc1 [Beispiel 27, 2HBr.H-D-CHG-Pro-Arg-pNA] (H-[dChg]-Pro-Arg-pNA) | 12,9 Nanomol | 0,33 Nanomol | 511 | 96,3 Nanomol
5 | 2HBr.H-D-CHT-Phe-Arg-pNA [Beispiel 17] | 7,4 Nanomol | 0,77 Nanomol | 860 | 18,7 Nanomol
6 | CCCC[C@H](NC(=O)[C@H](N)C1CCCCC1)C(=O)N[C@@H](CCCNC(=N)N)C(=O)Nc1ccc([N+](=O)[O-])cc1 [Beispiel 67, 2HBr.H-D-CHG-Nleu-Arg-pNA] (H-[dChg]-[Nle]-Arg-pNA) | 13,5 Nanomol | 0,53 Nanomol | 739 | 41,0 Nanomol
7 | NCCCC[C@H](NC(=O)[C@@H]1CCCN1C(=O)[C@H](N)CC1CCC(O)CC1)C(=O)Nc1ccc([N+](=O)[O-])cc1 (stereo partly drawn) [Beispiel 32, 2AcOH.H-D-CHT-Pro-Lys-pNA] | 3,8 Nanomol | 0,20 Nanomol | 613 | 0,8 Nanomol
8 | CC(C)[C@@H](N)C(=O)N[C@@H](CC1CCCCC1)C(=O)N[C@@H](CCCNC(=N)N)C(=O)Nc1ccc([N+](=O)[O-])cc1 [Beispiel 12, 2HBr.H-D-Val-CHA-Arg-pNA] (H-[dV]-[Cha]-Arg-pNA) | 30,5 Nanomol | 2,75 Nanomol | 421 | 4,0 Nanomol
9 | CC(C)C[C@H](NC(=O)[C@H](N)Cc1ccccc1)C(=O)N[C@@H](CCCNC(=N)N)C(=O)Nc1ccc([N+](=O)[O-])cc1 [Beispiel 50, 2HBr.H-D-Phe-Leu-Arg-pNA] (H-[dF]-Leu-Arg-pNA) | 6,8 Nanomol | 0,61 Nanomol | 313 | 14,4 Nanomol
10 | CC(C)C[C@@H](N)C(=O)N[C@@H](CC1CCCCC1)C(=O)N[C@@H](CCCCN)C(=O)Nc1ccc([N+](=O)[O-])cc1 [Beispiel 73, 2HBr.H-D-Leu-CHA-Lys-pNA] (H-[dL]-[Cha]-Lys-pNA) | 19,3 Nanomol | 1,73 Nanomol | 778 | 3,4 Nanomol
11 | CC[C@@H](N)C(=O)N[C@@H](CC1CCCCC1)C(=O)N[C@@H](CCCNC(=N)N)C(=O)Nc1ccc([N+](=O)[O-])cc1 [Beispiel 41, 2HBr.H-D-But-CHA-Arg-pNA] (H-[dAbu]-[Cha]-Arg-pNA) | 31,2 Nanomol | 2,99 Nanomol | 623 | 2,8 Nanomol
12 | CC[C@@H](N)C(=O)N[C@@H](CC1CCCCC1)C(=O)N[C@@H](CCCCN)C(=O)Nc1ccc([N+](=O)[O-])cc1 [Beispiel 72, 2HBr.H-D-But-CHA-Lys-pNA] (H-[dAbu]-[Cha]-Lys-pNA) | 21,0 Nanomol | 2,22 Nanomol | 532 | 3,6 Nanomol
13 | N=C(N)NCCC[C@H](NC(=O)[C@@H](NC(=O)[C@H](N)c1ccccc1)C1CCCCC1)C(=O)Nc1ccc([N+](=O)[O-])cc1 [Beispiel 62, 2HBr.H-D-Ph'Gly-CHG-Arg-pNA] (H-[dPhg]-[Chg]-Arg-pNA) | 7,2 Nanomol | 0,25 Nanomol | 26 | 2,4 Nanomol
14 | CC(C)C[C@@H](N)C(=O)N[C@@H](CC1CCCCC1)C(=O)N[C@@H](CCCNC(=N)N)C(=O)Nc1ccc([N+](=O)[O-])cc1 [Beispiel 36, 2HBr.H-D-Leu-CHA-Arg-pNA] (H-[dL]-[Cha]-Arg-pNA) | 35,9 Nanomol | 3,11 Nanomol | 1069 | 6,8 Nanomol
15 | CC(C)[C@@H](N)C(=O)N[C@H](C(=O)N[C@@H](CCCCN)C(=O)Nc1ccc([N+](=O)[O-])cc1)C1CCCCC1 [Beispiel 30, 2AcOH.H-D-Val-CHG-Lys-pNA] (H-[dV]-[Chg]-Lys-pNA) | 1,3 Nanomol | 0 Nanomol | 61 | 0,27 Nanomol
16 | CCC[C@@H](N)C(=O)N[C@@H](Cc1ccc(O)cc1)C(=O)N[C@@H](CCCNC(=N)N)C(=O)Nc1ccc([N+](=O)[O-])cc1 [Beispiel 44, 2HBr.H-D-Nval-Tyr-Arg-pNA] (H-[dNva]-Tyr-Arg-pNA) | 4,9 Nanomol | 0,42 Nanomol | 1219 | 1,8 Nanomol
17 | CC[C@H](NC(=O)[C@H](N)CC1CCCCC1)C(=O)N[C@@H](CCCNC(=N)N)C(=O)Nc1ccc([N+](=O)[O-])cc1 [Beispiel 76, 2HBr.H-D-CHA-But-Arg-pNA] (H-[dCha]-[Abu]-Arg-pNA) | 18,1 Nanomol | 0,51 Nanomol | 478 | 108,9 Nanomol
